Results from the NIST ThermoML archive (doi:10.1016/j.jct.2015.10.009).
Numbers after ± are expanded uncertainties. One block for each compound: values may come before it.

Columns and labels:
[1] = Liquid; for vapor or sublimation pressure: Closed cell (Static) method
[2] = refractive index (Na D-line) (dimensionless); conditions: 298.15 K; 101.33 kPa; Liquid; Standard Abbe refractometry

- vapor or sublimation pressure ([1]; 272.78 K): 3476 ± 11 kPa
- vapor or sublimation pressure ([1]; 277.83 K): 3958 ± 12 kPa
- vapor or sublimation pressure ([1]; 282.87 K): 4487 ± 13 kPa
- vapor or sublimation pressure ([1]; 287.92 K): 5069 ± 13 kPa
- vapor or sublimation pressure ([1]; 292.95 K): 5705 ± 14 kPa
- vapor or sublimation pressure ([1]; 297.99 K): 6404 ± 16 kPa
- vapor or sublimation pressure ([1]; 303.03 K): 7176 ± 17 kPa
Compound: O=C=O [carbon dioxide]

- refractive index [2]: 1.3724 ± 0.0004
- mass density ([1]; 298.15 K, 101.33 kPa, Vibrating tube method): 655.241 ± 0.26 kg/m3
Compound: CCCCCC [hexane]

- vapor or sublimation pressure ([1]; 267.81 K): 2176 ± 9 kPa
- vapor or sublimation pressure ([1]; 272.86 K): 2497 ± 9 kPa
- vapor or sublimation pressure ([1]; 277.9 K): 2881 ± 10 kPa
- vapor or sublimation pressure ([1]; 282.96 K): 3269 ± 10 kPa
- vapor or sublimation pressure ([1]; 287.99 K): 3707 ± 11 kPa
- vapor or sublimation pressure ([1]; 292.02 K): 4084 ± 11 kPa
- vapor or sublimation pressure ([1]; 293.04 K): 4180 ± 12 kPa
- vapor or sublimation pressure ([1]; 297.07 K): 4605 ± 12 kPa
Compound: FC(F)F [trifluoromethane]
